Measurements from the supplement of paper PMC10307832.

Columns and labels:
Experiment in all cases: relative viability (nuclei count vs DMSO), 5 days (fraction); higher = more cells survive
[1] = compound: CC1=CC=C(C=C1)C(=O)CN2C3=C(CCCC3)SC2=N [Pifithrin_alpha] + Nc1nc2[nH]cc(CCc3ccc(C(=O)N[C@@H](CCC(=O)O)C(=O)O)cc3)c2c(=O)[nH]1 [Pemetrexed] (partner 0.2 µM)
Method in brief: (§1)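 Relative viability equals treated-well nuclei counts divided by vehicle-well nuclei counts. Counts came from 4× images of lung cancer cell lines grown in 1536-well plates for 5 days after pin-tool dosing on the day after seeding. Dosing used one drug alone or a fixed anchor-drug dose plus five library-drug doses (not always all listed) in √10 steps, and values are medians of duplicate plates.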

Axitinib + Foretinib = compound: CNC(=O)c1ccccc1Sc1ccc2c(/C=C/c3ccccn3)n[nH]c2c1 [Axitinib] + COc1cc2c(Oc3ccc(NC(=O)C4(C(=O)Nc5ccc(F)cc5)CC4)cc3F)ccnc2cc1OCCCN1CCOCC1 [Foretinib] (partner 0.25 µM)
Method in brief: as §1

Axitinib + Pictilisib = compound: CNC(=O)c1ccccc1Sc1ccc2c(/C=C/c3ccccn3)n[nH]c2c1 [Axitinib] + CS(=O)(=O)N1CCN(Cc2cc3nc(-c4cccc5[nH]ncc45)nc(N4CCOCC4)c3s2)CC1 [Pictilisib] (partner 1 µM)
Method in brief: as §1

Bemcentinib + Alpelisib = compound: Nc1nc(Nc2ccc3c(c2)CC[C@@H](N2CCCC2)CC3)nn1-c1cc2c(nn1)-c1ccccc1CCC2 [Bemcentinib] + Cc1nc(NC(=O)N2CCC[C@H]2C(N)=O)sc1-c1ccnc(C(C)(C)C(F)(F)F)c1 [Alpelisib] (partner 2 µM)
Method in brief: as §1

Cell Line	relative viability ([1]; first compound 1 µM)	relative viability ([1]; first compound 3.162 µM)	relative viability ([1]; first compound 10 µM)	relative viability ([1]; first compound 31.62 µM)	relative viability ([1]; first compound 100 µM)	relative viability (Axitinib + Foretinib; first compound 0.005 µM)	relative viability (Axitinib + Foretinib; first compound 0.01581 µM)	relative viability (Axitinib + Foretinib; first compound 0.05 µM)	relative viability (Axitinib + Foretinib; first compound 0.1581 µM)	relative viability (Axitinib + Foretinib; first compound 0.5 µM)	relative viability (Axitinib + Pictilisib; first compound 0.005 µM)	relative viability (Axitinib + Pictilisib; first compound 0.01581 µM)	relative viability (Axitinib + Pictilisib; first compound 0.05 µM)	relative viability (Axitinib + Pictilisib; first compound 0.1581 µM)	relative viability (Axitinib + Pictilisib; first compound 0.5 µM)	relative viability (Bemcentinib + Alpelisib; first compound 0.04 µM)	relative viability (Bemcentinib + Alpelisib; first compound 0.1265 µM)	relative viability (Bemcentinib + Alpelisib; first compound 0.4 µM)	relative viability (Bemcentinib + Alpelisib; first compound 1.265 µM)	relative viability (Bemcentinib + Alpelisib; first compound 4 µM)
201T	0.315	0.337	0.296	0.29	0.295	1.07	1.06	0.972	1.17	1.21	0.671	0.69	0.662	0.675	0.675	1.01	0.987	1.03	1.08	1.04
A549						0.977	0.973	0.972	0.976	1.23	0.482	0.587	0.48	0.461	0.601	0.834	0.892	0.754	0.988	0.875
A-427	0.827	1	0.87	0.759	0.905	1.12	1.15	1.12	0.94	1.26	0.672	0.496	0.77	0.705	0.679		1.05	1.18	1.04	1.15
ABC-1						1.02	1.04	1.17	0.916	1.29	0.716	0.773	0.812	0.658	0.834	1.22	1.07	1.08	0.997	1.07
BEN	0.523	0.741	0.741	0.746	0.629	0.662	0.514	0.643	0.852	0.573	0.547	0.536	0.533	0.516	0.515	0.984	1.09	1.11	1.12	1.02
CAL-12T	1.31	1.29	1.1		1.19	1.13	1.08	1.15	1.17	1.21	0.385	0.393	0.513	0.492	0.396	1.19	1.51	1.37	1.31	1.16
COR-L23	0.19	0.201	0.196		0.181	1.1	0.953	1.13	0.948	1.02	0.838	0.779	0.832	0.731	0.944	0.874	0.778	0.965	0.9	0.904
COR-L 105	1.13	1	0.951	0.926	1.03	0.973	1.12	1.16	1.05	1.49	0.42	0.411	0.379	0.382	0.385	1.05	0.949	1.03	0.931	0.895
Calu-6						0.955	0.902	0.855	0.904	0.947	0.861	0.946	1	0.942	1.17	0.928	1.04	1.01	1.04	1.07
ChaGo-K-1	0.251	0.252	0.27	0.263	0.249	0.961	1	0.984	0.889	1	0.725	0.562	0.878	0.643	0.541					
EBC-1						0.104	0.116	0.0984	0.0972	0.122	0.492	0.485	0.459	0.41	0.567	0.843	0.863	0.825	0.849	0.76
EKVX	0.514	0.352	0.37	0.266	0.316	0.861	0.786	0.349	0.778	0.824	0.441	0.429	0.481	0.48	0.399	0.913	1.01	0.929	0.973	0.972
EMC-BAC-2	0.443	0.435	0.416	0.383	0.418	1.05	1.08	1.03	1.08	1.09	0.569	0.533	0.534	0.555	0.529	0.833	0.756	0.817	0.788	0.803
EPLC-272H	0.444	0.3	0.249	0.295	0.382	0.639	0.745	0.579	0.735	0.637	0.317	0.289	0.391	0.272	0.313		0.991	0.951	0.977	1.07
H3255	0.507	0.533	0.537	0.532	0.505	1.03	0.61	0.848	0.859	0.801	0.485	0.288	0.432	0.492	0.435	0.63	0.71	0.713	0.61	0.703
HARA	0.234	0.232	0.266	0.248	0.23	0.768	0.907	0.945	0.821	0.919	0.324	0.401	0.545	0.364	0.281	0.759	0.918	0.822	0.866	0.936
HCC-15	0.225	0.206	0.207	0.206	0.209	1.1	1.11	0.958	0.99	0.999	0.696	0.828	0.761	0.736	0.737	0.886	0.945	0.97	0.92	0.889
HCC-44	0.56	0.584	0.667	0.519	0.574						0.56	0.734	0.682	0.695	0.546	0.875	0.911	0.939	0.967	1.05
HCC-78		0.937	0.941	0.901	0.944	0.582	0.536	0.512	0.6	0.548	0.207	0.257	0.238	0.229	0.218	0.246	0.322	0.336	0.39	0.33

Cell Line	relative viability ([1]; first compound 1 µM)	relative viability ([1]; first compound 3.162 µM)	relative viability ([1]; first compound 10 µM)	relative viability ([1]; first compound 31.62 µM)	relative viability ([1]; first compound 100 µM)	relative viability (Axitinib + Foretinib; first compound 0.005 µM)	relative viability (Axitinib + Foretinib; first compound 0.01581 µM)	relative viability (Axitinib + Foretinib; first compound 0.05 µM)	relative viability (Axitinib + Foretinib; first compound 0.1581 µM)	relative viability (Axitinib + Foretinib; first compound 0.5 µM)	relative viability (Axitinib + Pictilisib; first compound 0.005 µM)	relative viability (Axitinib + Pictilisib; first compound 0.01581 µM)	relative viability (Axitinib + Pictilisib; first compound 0.05 µM)	relative viability (Axitinib + Pictilisib; first compound 0.1581 µM)	relative viability (Axitinib + Pictilisib; first compound 0.5 µM)	relative viability (Bemcentinib + Alpelisib; first compound 0.04 µM)	relative viability (Bemcentinib + Alpelisib; first compound 0.1265 µM)	relative viability (Bemcentinib + Alpelisib; first compound 0.4 µM)	relative viability (Bemcentinib + Alpelisib; first compound 1.265 µM)	relative viability (Bemcentinib + Alpelisib; first compound 4 µM)
HCC-366	0.158	0.154	0.139		0.133	0.949	0.958	0.865	0.966	0.977	0.116	0.171	0.146	0.153	0.101	0.474	0.408	0.572	0.378	0.417
HCC-827	0.251	0.256	0.27	0.239	0.205	1.06	0.984	1.04	1.01	1.13	0.911	1.04	0.947	1.08	0.889	0.999	1.02	0.909	0.957	0.982
HOP-62	0.209	0.4	0.38	0.304	0.441	1.07	1.14	1.06	1.09	1.3	0.679	0.861	0.735	0.792	0.583	0.914	0.831		1.19	0.747
IA-LM						1.27	1.14	1.13	1.09	1.35	0.442	0.307	0.331	0.396	0.4	0.749	0.807	0.748	0.652	0.78
LC-2-ad	0.307	0.256	0.293	0.263	0.251	0.871	0.891	0.917	0.761	0.959	0.505	0.516	0.458	0.54	0.469	0.877	0.969	0.907	0.822	0.852
LCLC-97TM1		0.184	0.183		0.15	0.847	0.977	0.926	0.896	0.918	0.145	0.229	0.206	0.247	0.172	0.313	0.226		0.289	0.265
LCLC-103H	0.46	0.433	0.436	0.458	0.493	0.747	0.867	0.787	0.764	0.85	0.644	0.512	0.664	0.569	0.587	0.957	0.941	1.05	1.06	1.16
LK-2	0.188	0.288	0.244		0.327	1.31	1.03	1.06	1.1	1.42	0.556	0.434	0.512	0.506	0.486	1.1	1.22	1.27	1.15	1.31
LOU-NH91	0.398	0.362	0.307	0.332	0.359	0.917	0.659	0.981	0.962	0.957	0.528	0.529	0.557	0.544	0.52	0.631	0.702	0.7	0.717	0.71
NCI-H522	0.805	0.978	1.02	0.796	1.05															
NCI-H727						1.23	0.837	0.896	0.982	1.15	0.486	0.426	0.485	0.397	0.492	0.528	0.576	0.492	0.491	0.621
NCI-H1299						1.06	1.04	1.08	1.08	1.24	0.765	0.997	0.75	0.856	1.1	1.1	1.07	1.09	1.1	1.08
NCI-H1623						0.948	0.846	0.758	0.838	0.885										
NCI-H1648	0.805	0.49	0.924	0.655	0.671															
NCI-H1650	0.358	0.366	0.341	0.331	0.392	1.32	1.12	1.24	1.19	1.31	0.624	0.36	0.644	0.529	0.585					
NCI-H1703						0.362	0.292	0.376	0.371	0.325	0.228	0.216	0.254	0.231	0.2	0.29	0.382	0.39	0.312	0.426
NCI-H1792	1.12	0.649	0.675		0.585						0.311	0.251	0.213	0.275	0.271	0.812	0.66	0.828	0.746	0.781
NCI-H2342	0.628	0.741	0.729	0.855	0.782	1.29	1.04	0.982	1.02	1.07										
SW 900	0.493	0.509	0.499	0.503	0.371	1.02	0.673	0.941	1.01	1.12										
